From patent US6046171A, “6,11-bridged erythromycin derivatives” (priority 1998, dated 2000)
In brackets after ≈: the same amount, converted by molar mass.

How the values were obtained:
Assay type in all cases: cell-based
[1] = test system: Staphylococcus aureus ATCC 6538P; assay: in vitro antibacterial MIC, agar dilution (BHI agar, Steers replicator); conditions: organism code AA; 35-37° C., 20 to 24 hours; unit assumed
Description: (§1) Representative compounds of the present invention were assayed in vitro for antibacterial activity as follows: Twelve petri dishes containing successive aqueous dilutions of the test compound mixed with 10 mL of sterilized Brain Heart Infusion (BHI) agar (Difco 0418-01-5) were prepared. Each plate was inoculated with 1:100 (or 1:10 for slow-growing strains, such as Micrococcus and Streptococcus) dilutions of up to 32 different microorganisms, using a Steers replicator block. […] In addition, a control plate, using BHI agar containing no test compound, was prepared and incubated at the beginning and end of each test.
(§2) An additional plate containing a compound having known susceptibility patterns for the organisms being tested and belonging to the same antibiotic class as the test compound was also prepared and incubated as a further control, as well as to provide test-to-test comparability.
(§3) After incubation, each plate was visually inspected. The minimum inhibitory concentration (MIC) was defined as the lowest concentration of drug yielding no growth, a slight haze, or sparsely isolated colonies on the inoculum spot as compared to the growth control.

Candida albicans CCH 442 = assay: in vitro MIC, agar dilution; conditions: organism code TT; 35-37° C., 20 to 24 hours; unit assumed
Description: as §1, §2, §3

[2] = test system: Staphylococcus aureus NCTC10649M; assay: in vitro antibacterial MIC, agar dilution; conditions: organism code EE; 35-37° C., 20 to 24 hours; unit assumed
Description: as §1, §2, §3

[3] = test system: Staphylococcus aureus CMX 642A; assay: in vitro antibacterial MIC, agar dilution; conditions: organism code DD; 35-37° C., 20 to 24 hours; unit assumed
Description: as §1, §2, §3

[4] = test system: Micrococcus luteus ATCC 4698; assay: in vitro antibacterial MIC, agar dilution; conditions: organism code PP; 35-37° C., 20 to 24 hours; unit assumed
Description: as §1, §2, §3

[5] = test system: Streptococcus Pheumoniae 5649; assay: in vitro antibacterial MIC, agar dilution; conditions: organism code ZZA; 35-37° C., 20 to 24 hours; unit assumed
Description: as §1, §2, §3

[6] = test system: Staphylococcus aureus CMX 553; assay: in vitro antibacterial MIC, agar dilution; conditions: organism code FF; 35-37° C., 20 to 24 hours; unit assumed
Description: as §1, §2, §3

[7] = test system: Streptococcus Pheumoniae 5979; assay: in vitro antibacterial MIC, agar dilution; conditions: organism code ZZ; 35-37° C., 20 to 24 hours; unit assumed
Description: as §1, §2, §3

[8] = test system: Haemophilis Influenzae DILL AMP R; assay: in vitro antibacterial MIC, agar dilution; conditions: organism code WW; 35-37° C., 20 to 24 hours; unit assumed
Description: as §1, §2, §3

[9] = test system: Staphylococcus aureus 1775; assay: in vitro antibacterial MIC, agar dilution; conditions: organism code GG; 35-37° C., 20 to 24 hours; unit assumed
Description: as §1, §2, §3

[10] = test system: Staphylococcus aureus A-5278; assay: in vitro antibacterial MIC, agar dilution; conditions: organism code CC; 35-37° C., 20 to 24 hours; unit assumed
Description: as §1, §2, §3

[11] = test system: Streptococcus Pheumoniae GYR 1171; assay: in vitro antibacterial MIC, agar dilution; conditions: organism code YY; 35-37° C., 20 to 24 hours; unit assumed
Description: as §1, §2, §3

[12] = test system: Mycobacterium smegmatis ATCC 114; assay: in vitro antibacterial MIC, agar dilution; conditions: organism code UU; 35-37° C., 20 to 24 hours; unit assumed
Description: as §1, §2, §3

[13] = test system: Streptococcus Pheumoniae ATCC6303; assay: in vitro antibacterial MIC, agar dilution; conditions: organism code XX; 35-37° C., 20 to 24 hours; unit assumed
Description: as §1, §2, §3

[14] = test system: Enterococcus faecium ATCC 8Q43; assay: in vitro antibacterial MIC, agar dilution; conditions: organism code II; 35-37° C., 20 to 24 hours; unit assumed
Description: as §1, §2, §3

Escherichia coli JUHL = assay: in vitro antibacterial MIC, agar dilution; conditions: organism code QQ; 35-37° C., 20 to 24 hours; unit assumed
Description: as §1, §2, §3

[15] = test system: Streptococcus agalactiae CMX 508; assay: in vitro antibacterial MIC, agar dilution; conditions: organism code KK; 35-37° C., 20 to 24 hours; unit assumed
Description: as §1, §2, §3

Escherichia coli DC-2 = assay: in vitro antibacterial MIC, agar dilution; conditions: organism code SS; 35-37° C., 20 to 24 hours; unit assumed
Description: as §1, §2, §3

[16] = test system: Streptococcus pyogenes EES61; assay: in vitro antibacterial MIC, agar dilution; conditions: organism code LL; 35-37° C., 20 to 24 hours; unit assumed
Description: as §1, §2, §3

[17] = test system: Staphylococcus aureus A5177; assay: in vitro antibacterial MIC, agar dilution; conditions: organism code BB; 35-37° C., 20 to 24 hours; unit assumed
Description: as §1, §2, §3

Escherichia coli SS = assay: in vitro antibacterial MIC, agar dilution; conditions: organism code RR; 35-37° C., 20 to 24 hours; unit assumed
Description: as §1, §2, §3

[18] = test system: Staphylococcus epidermidis 3519; assay: in vitro antibacterial MIC, agar dilution; conditions: organism code HH; 35-37° C., 20 to 24 hours; unit assumed
Description: as §1, §2, §3

[19] = test system: Streptococcus pyogenes PIU 2548; assay: in vitro antibacterial MIC, agar dilution; conditions: organism code NN; 35-37° C., 20 to 24 hours; unit assumed
Description: as §1, §2, §3

[20] = test system: Streptococcus bovis A-5169; assay: in vitro antibacterial MIC, agar dilution; conditions: organism code JJ; 35-37° C., 20 to 24 hours; unit assumed
Description: as §1, §2, §3

[21] = test system: Streptococcus pyogenes 930; assay: in vitro antibacterial MIC, agar dilution; conditions: organism code MM; 35-37° C., 20 to 24 hours; unit assumed
Description: as §1, §2, §3

[22] = test system: Nocardia Asteroides ATCC9970; assay: in vitro antibacterial MIC, agar dilution; conditions: organism code VV; 35-37° C., 20 to 24 hours; unit assumed
Description: as §1, §2, §3

[23] = test system: Micrococcus luteus ATCC 9341; assay: in vitro antibacterial MIC, agar dilution; conditions: organism code OO; 35-37° C., 20 to 24 hours; unit assumed
Description: as §1, §2, §3

CC[C@H]1OC(=O)[C@H](C)C(=O)[C@H](C)[C@@H](O[C@@H]2O[C@H](C)C[C@H](N(C)C)[C@H]2O)[C@@]2(C)C[C@@H](C)C(=O)[C@H](C)[C@H]3N(CCNC(=O)c4ccccc4C=CCO2)C(=O)O[C@]13C [Example 21] gave an MIC [1] of 1.56 mg/L (≈ 1.99 µM), an MIC (Candida albicans CCH 442) of over 100 mg/L and an MIC [2] of 3.1 mg/L (≈ 3.95 µM). The MIC [3] was 3.1 mg/L (≈ 3.95 µM), the MIC [4] was 0.39 mg/L (≈ 0.497 µM) and the MIC [5] was 2 mg/L (≈ 2.55 µM). For the same compound, the MIC [6] was 3.1 mg/L (≈ 3.95 µM), the MIC [7] was over 128 mg/L and the MIC [8] was 64 mg/L (≈ 81.6 µM). For the same compound, the MIC [9] was over 100 mg/L, the MIC [10] was over 100 mg/L and the MIC [11] was 0.25 mg/L (≈ 0.319 µM). For the same compound, the MIC [12] was 6.2 mg/L (≈ 7.91 µM), the MIC [13] was 0.25 mg/L (≈ 0.319 µM) and the MIC [14] was 0.2 mg/L (≈ 0.255 µM). For the same compound, the MIC (Escherichia coli JUHL) was over 100 mg/L, the MIC [15] was 0.1 mg/L (≈ 0.128 µM) and the MIC (Escherichia coli DC-2) was over 100 mg/L. It also gave an MIC [16] of 0.1 mg/L (≈ 0.128 µM), an MIC [17] of 1.56 mg/L (≈ 1.99 µM) and an MIC (Escherichia coli SS) of 1.56 mg/L (≈ 1.99 µM). For the same compound, the MIC [18] was 1.56 mg/L (≈ 1.99 µM), the MIC [19] was 0.78 mg/L (≈ 0.995 µM) and the MIC [20] was 0.1 mg/L (≈ 0.128 µM). It also gave an MIC [21] of over 100 mg/L, an MIC [22] of 0.39 mg/L (≈ 0.497 µM) and an MIC [23] of 0.2 mg/L (≈ 0.255 µM).
In the case of CC[C@H]1OC(=O)[C@H](C)[C@@H](O[C@H]2C[C@@](C)(OC)[C@@H](O)[C@H](C)O2)[C@H](C)[C@@H](O[C@@H]2O[C@H](C)C[C@H](N(C)C)[C@H]2O)[C@@]2(C)C[C@@H](C)C(=O)[C@H](C)[C@H]3N(CC(=O)CC=CCO2)C(=O)O[C@]13C [Example 20], the MIC [1] is reported as 3.1 mg/L (≈ 3.63 µM), the MIC (Candida albicans CCH 442) is reported as over 100 mg/L and the MIC [2] is reported as 3.1 mg/L (≈ 3.63 µM). The MIC [3] was 3.1 mg/L (≈ 3.63 µM), the MIC [4] was 0.78 mg/L (≈ 0.914 µM) and the MIC [5] was 1 mg/L (≈ 1.17 µM). The MIC [6] was 3.1 mg/L (≈ 3.63 µM), the MIC [7] was 128 mg/L (≈ 150 µM) and the MIC [8] was 8 mg/L (≈ 9.38 µM). For the same compound, the MIC [9] was over 100 mg/L, the MIC [10] was over 100 mg/L and the MIC [11] was 0.25 mg/L (≈ 0.293 µM). The MIC [12] was 0.39 mg/L (≈ 0.457 µM), the MIC [13] was 0.25 mg/L (≈ 0.293 µM) and the MIC [14] was 0.2 mg/L (≈ 0.234 µM). It also gave an MIC (Escherichia coli JUHL) of over 100 mg/L, an MIC [15] of 0.39 mg/L (≈ 0.457 µM) and an MIC (Escherichia coli DC-2) of over 100 mg/L. The MIC [16] was 0.2 mg/L (≈ 0.234 µM), the MIC [17] was 12.5 mg/L (≈ 14.7 µM) and the MIC (Escherichia coli SS) was 3.1 mg/L (≈ 3.63 µM). It also gave an MIC [18] of 3.1 mg/L (≈ 3.63 µM), an MIC [19] of 25 mg/L (≈ 29.3 µM) and an MIC [20] of 0.2 mg/L (≈ 0.234 µM). For the same compound, the MIC [21] was 100 mg/L (≈ 117 µM), the MIC [22] was 0.2 mg/L (≈ 0.234 µM) and the MIC [23] was 0.2 mg/L (≈ 0.234 µM).
